Measurements from EP4810498A1, “MEDICATION FOR TREATING SEVERE MALARIA AND SYNTHESIS METHOD THEREFOR” (Institute of Chinese Materia Medica, China Academy of …, priority 2023, dated 2025).
Read-outs that look alike come from different tables or passages of the source. Blank lines part the entries; values can stand above or below the molecule they belong to.

How the values were obtained:
[1] = system: Plasmodium falciparum 3D7; assay: SYBR Green assay, growth inhibition of Plasmodium falciparum cultured in vitro; assay type: cell-based
Procedure: Plasmodium falciparum in the ring stage was synchronized. Smearing was carried out and the infection rate was counted. The synchronized parasitized red blood cells, healthy red blood cells and mediums were matched in a reasonable ratio, resulting in an in vitro culture system of plasmodia (ring bodies, 2 to 4 hours-old) with a hematocrit of 2% and an infection rate of 1%. […] A1-A10 was paved with 25 µl of drugs (with 8 complex wells for each drug) and mixed evenly, and then diluted in multiple proportions (Ax-Hx). Except for A12-H12, 50 µL of a plasmodium culture solution was spread in all the other wells; and A12-H12 was spread with 50 µl of healthy red blood cells (in the medium with a hematocrit of 2%). […] 100 µl of a lysis buffer was added to each of the wells and put into a drawer to avoid light for 1 h.
In this experiment, SYBR Green assay was used to determine the median inhibitory concentration (IC50) value of the drug for treating Plasmodium falciparum 3D7. Nonlinear regression was used to calculate the value by means of software graphpad prism 8.0 (the value was equal to average value plus or minus standard error), and a four-parameter logistic fitting curve was used. Each value in the curve was equal to average value plus or minus standard error in eight biological repetitive experiments.

[2] = system: Plasmodium berghei ANKA strain; assay: Body weight of cerebral malaria model mice; assay type: in vivo, C57BL/6J mice
Source text: (§1) Experimental study on the antimalarial activity of Artesunazine (Example Ia-1) in vitro and vivo. I. Protection of Artesunazine on mice infected by Plasmodium berghei ANKA strain. (I) Experimental materials: • 1. Animals: C57BL/6J, weighing 16-18 g, 10 in each group, 50 in total. • 2. Plasmodium strain: Plasmodium berghei ANKA strain, donated by Professor Zhao Ya of Air Force Medical University of the People's Liberation Army of China (The Fourth Military Medical University), was preserved in our laboratory by blood transmission or freezing. • 3. Drugs and preparation methods: Artesunazine and a positive control drug artesunate were dissolved in a mixed solvent of polyethylene glycol 400 (PEG400) and water (PEG400:water=4:1), serving as a preparation for immediate use. (II) Experimental methods • 1. Plasmodium resuscitation and passage: A Plasmodium berghei ANKA strain frozen in liquid nitrogen was taken out and placed in a water bath kettle at 37°C. After melting, it was immediately intraperitoneally inoculated into C57BL/6J mice (0.2 mL/mouse). When the infection rate of the breeding mice reached 15-30%, their eyeballs were removed and blood was collected in an anticoagulant tube. After shaking well, the blood was transmitted to offspring C57BL/6J mice with a 1 mL syringe at an injection dose of 0.2 mL/mouse. • 2. Plasmodium inoculation: C57BL/6J mice were weighed and fed adaptively. When the infection rate of offspring C57BL/6J mice reached 15-30%, the total number of red blood cells and the number of pRBCs were counted after their eyeballs were removed and blood was collected. The blood was injected intraperitoneally into model group C57BL/6J mice at an injection dose of 0.2 mL (including 1×10^7 pRBCs) per mouse, which was the 0th day (D0) of inoculation. • 3. Animal grouping: After inoculation, the experimental mice were randomly divided into 5 groups, including a model (M) group, high, medium and low dose Artesunazine groups (i.e., 40 mg/kg, 20 mg/kg, and 10 mg/kg Artesunazine), and an artesunate group (i.e., 15.6 mg/kg AS, clinically equivalent dose). The dosage of the medium dose Artesunazine group (20mg/kg Artesunazine) is equivalent to that of the artesunate group (15.6 mg/kg). There are 10 mice in each group, a total of 50 mice. • 4. Determination of survival rate From the 0th day of inoculation, the death of mice was observed every day for 28 consecutive days. Survival rate = (Number of surviving mice)/(Number of experimental mice) × 100% [formula] • 5. Determination of recurrence rate After inoculation, the mice were randomly divided into groups and administered via nasal drip for 3 h. […] The mouse recurrence rate was calculated by the ratio of the number of mice with recurrence to the total number of mice. […]

[3] = system: Plasmodium berghei ANKA strain; assay: Rapid mouse coma behavior scale (RMCBS) score of cerebral malaria model mice; assay type: in vivo, C57BL/6J mice
Source text: as §1

[4] = system: Plasmodium berghei ANKA strain; assay: Recurrence rate of cerebral malaria model mice (blood smear); assay type: in vivo, C57BL/6J mice
Source text: Experimental study on the antimalarial activity of Artesunazine (Example Ia-1) in vitro and vivo. I. Protection of Artesunazine on mice infected by Plasmodium berghei ANKA strain. (I) Experimental materials: • 1. Animals: C57BL/6J, weighing 16-18 g, 10 in each group, 50 in total. • 2. Plasmodium strain: Plasmodium berghei ANKA strain, donated by Professor Zhao Ya of Air Force Medical University of the People's Liberation Army of China (The Fourth Military Medical University), was preserved in our laboratory by blood transmission or freezing. • 3. Drugs and preparation methods: Artesunazine and a positive control drug artesunate were dissolved in a mixed solvent of polyethylene glycol 400 (PEG400) and water (PEG400:water=4:1), serving as a preparation for immediate use. (II) Experimental methods • 1. Plasmodium resuscitation and passage: A Plasmodium berghei ANKA strain frozen in liquid nitrogen was taken out and placed in a water bath kettle at 37°C. After melting, it was immediately intraperitoneally inoculated into C57BL/6J mice (0.2 mL/mouse). When the infection rate of the breeding mice reached 15-30%, their eyeballs were removed and blood was collected in an anticoagulant tube. After shaking well, the blood was transmitted to offspring C57BL/6J mice with a 1 mL syringe at an injection dose of 0.2 mL/mouse. • 2. Plasmodium inoculation: C57BL/6J mice were weighed and fed adaptively. When the infection rate of offspring C57BL/6J mice reached 15-30%, the total number of red blood cells and the number of pRBCs were counted after their eyeballs were removed and blood was collected. The blood was injected intraperitoneally into model group C57BL/6J mice at an injection dose of 0.2 mL (including 1×10^7 pRBCs) per mouse, which was the 0th day (D0) of inoculation. • 3. Animal grouping: After inoculation, the experimental mice were randomly divided into 5 groups, including a model (M) group, high, medium and low dose Artesunazine groups (i.e., 40 mg/kg, 20 mg/kg, and 10 mg/kg Artesunazine), and an artesunate group (i.e., 15.6 mg/kg AS, clinically equivalent dose). The dosage of the medium dose Artesunazine group (20mg/kg Artesunazine) is equivalent to that of the artesunate group (15.6 mg/kg). There are 10 mice in each group, a total of 50 mice. • 4. Determination of survival rate From the 0th day of inoculation, the death of mice was observed every day for 28 consecutive days. Survival rate = (Number of surviving mice)/(Number of experimental mice) × 100% [formula] • 5. Determination of recurrence rate After inoculation, the mice were randomly divided into groups and administered via nasal drip for 3 h. After four consecutive days of administration, blood smear test began at D4. A small drop of blood was taken from the tail tip of a mouse and dropped onto a glass slide. The blood drop was pushed to one end at a certain angle with the edge of another glass slide to make a thin blood film with appropriate thickness. After the thin blood film was air-dried, it was fixed with methanol and placed until completely air-dried. After a Giemsa stain solution was diluted at a ratio of 1:9 for staining (completely covering the fixed thin blood film) for 20 min, the thin blood film was rinsed under a faucet, and the water on the surface of the film was quickly absorbed with filter paper. A drop of cedar oil was dropped onto a glass slide for examination under a 100x oil microscope to count the number of parasitized red blood cells contained in 1000 red blood cells. The mouse recurrence rate was calculated by the ratio of the number of mice with recurrence to the total number of mice. Recurrence rate = (Number of mice with recurrence)/(Number of experimental mice) × 100% [formula] • 6. RMCBS score determination A rapid mouse coma behavior scale (RMCBS) was used to evaluate the neurological function of experimental mice. […]

[5] = system: Plasmodium berghei ANKA strain; assay: Survival rate of cerebral malaria model mice; assay type: in vivo, C57BL/6J mice; conditions: nasal drip, four consecutive days, 28 days of observation
Source text: as §1

[6] = system: Plasmodium berghei ANKA strain; assay: Anal temperature of cerebral malaria model mice; assay type: in vivo, C57BL/6J mice; conditions: compared with the AS group (P<0.001)
Source text: Experimental study on the antimalarial activity of Artesunazine (Example Ia-1) in vitro and vivo. I. Protection of Artesunazine on mice infected by Plasmodium berghei ANKA strain. (I) Experimental materials: • 1. Animals: C57BL/6J, weighing 16-18 g, 10 in each group, 50 in total. • 2. Plasmodium strain: Plasmodium berghei ANKA strain, donated by Professor Zhao Ya of Air Force Medical University of the People's Liberation Army of China (The Fourth Military Medical University), was preserved in our laboratory by blood transmission or freezing. • 3. Drugs and preparation methods: Artesunazine and a positive control drug artesunate were dissolved in a mixed solvent of polyethylene glycol 400 (PEG400) and water (PEG400:water=4:1), serving as a preparation for immediate use. (II) Experimental methods • 1. Plasmodium resuscitation and passage: A Plasmodium berghei ANKA strain frozen in liquid nitrogen was taken out and placed in a water bath kettle at 37°C. After melting, it was immediately intraperitoneally inoculated into C57BL/6J mice (0.2 mL/mouse). […] When the infection rate of offspring C57BL/6J mice reached 15-30%, the total number of red blood cells and the number of pRBCs were counted after their eyeballs were removed and blood was collected. […] The mouse recurrence rate was calculated by the ratio of the number of mice with recurrence to the total number of mice. […]

[7] = Plasmodium falciparum standard strain 3D7, cultured for 72 h, read-out: IC50
[8] = Plasmodium falciparum, 3D7, 72 h

Structure (SMILES): C[C@H]1[C@H](OC(=O)CCC(=O)O)O[C@@H]2O[C@@]3(C)CC[C@H]4[C@H](C)CC[C@@H]1[C@@]24OO3 [artesunate, dihydroartemisinin-12-α-succinate, reference compound]
IC50 [1, 8]: 8.82 nM | body weight ([2]; AS group (15.6 mg/kg), at the end of the observation, in g (unit assumed)): 15.41±0.50 | content of artesunate (mixed solution with ligustrazine hydrochloride in 80% polyethylene glycol 400, dark environment at 40°C): rapidly decreased | RMCBS score ([3]; AS group (15.6 mg/kg), at the end point of observation, total of 20 points): 16.22±0.55 points | Recurrence rate (%) D4 ([4]; AS group (15.6 mg/kg)): 10% | Recurrence rate (%) D7 ([4]; AS group (15.6 mg/kg)): 90% | Recurrence rate (%) D28 ([4]; AS group (15.6 mg/kg)): 100% | survival rate ([5]; 15.6 mg/kg AS): 40%

Structure (SMILES): Cc1nc(C)c(COC(=O)C2CCN(CC(=O)OC3OC4OC5(C)CCC6C(C)CCC(C3C)C46OO5)CC2)nc1C [Compound Ia-9, (3,5,6-trimethylpyrazine-2-yl) methyl 1-(2-oxy-2-(((3R, 5aS, 6R, 9R, 10S, 12R, 12aR)-3,6,9-trimethyldecahydro-12H-3, 12-epoxy [1, 2]dioxacycloheptane-10-yl)oxy)ethyl) piperidine-4-formate]
IC50 [1, 8]: 32.7 nM

Structure (SMILES): OC(c1cc(C(F)(F)F)nc2c(C(F)(F)F)cccc12)C1CCCCN1 (centres unmarked) [mefloquine, reference compound]
IC50 ([1]; Plasmodium falciparum, 3D7, standard antimalarial drugs given for comparison, source of the values not stated, read-out: IC50): ~3.96 nM

Structure (SMILES): Cc1nc(C)c(COC(=O)CCC(=O)OC2OC3OC4(C)CCC5C(C)CCC(C2C)C35OO4)nc1C [Compound Ia-1, (3R, 5aS, 6R, 9R, 10R, 12R, 12aR)-3,6,9-trimethyldecahydro-12h-3, 12-epoxy [1, 2] dioxopyran [4,3-i] isobenzopyran-10-yl ((3,5,6-trimethylpyrazine-2-yl)methyl) succinate]
IC50 [1, 7]: 7.36 nM | body weight ([2]; 10 mg/kg, at the end of the observation): 16.66±0.45 | body weight ([2]; 20 mg/kg, throughout the observation period): no significant decrease | body weight ([2]; 40 mg/kg, throughout the observation period): no significant decrease | color of the solution (80% polyethylene glycol 400 solution, 40°C, dark): basically unchanged | RMCBS score ([3]; 10 mg/kg): 18.40±0.48 points | RMCBS score ([3]; 20 mg/kg): around 20 points | RMCBS score ([3]; 40 mg/kg): around 20 points | Recurrence rate (%) D4 ([4]; 10 mg/kg): 10% | Recurrence rate (%) D7 ([4]; 10 mg/kg): 80% | Recurrence rate (%) D28 ([4]; 10 mg/kg): 100% | Recurrence rate (%) D4 ([4]; 20 mg/kg): 0% | Recurrence rate (%) D28 ([4]; 20 mg/kg): 10% | Recurrence rate (%) D4 ([4]; 40 mg/kg): 0% | Recurrence rate (%) D28 ([4]; 40 mg/kg): 10% | temperature ([6]; 20 mg/kg): better maintained the temperature | temperature ([6]; 40 mg/kg): better maintained the temperature | survival rate ([5]; 10 mg/kg Artesunazine (low dose)): 50% | survival rate ([5]; 20 mg/kg Artesunazine (medium dose)): 90% | survival rate ([5]; 40 mg/kg Artesunazine (high dose)): 100%

The remaining lines, values ahead:

IC50 [1, 7]: 14.3 nM
Structure (SMILES): Cc1nc(C)c(COC(=O)CCCCC(=O)OC2OC3OC4(C)CCC5C(C)CCC(C2C)C35OO4)nc1C [Compound Ia-6, (3R, 5aS, 6R, 9R, 10R, 12R, 12aR)-3,6,9-trimethyldecahydro-12h-3, 12-epoxy [1, 2] dioxopyran [4,3-i] isobenzopyran-10-yl ((3,5,6-trimethylpyrazine-2-yl)methyl) adipate]

IC50 [1, 7]: 107 nM
Structure (SMILES): Cc1nc(C)c(COCCOC2OC3OC4(C)CCC5C(C)CCC(C2C)C35OO4)nc1C [Compound Ia-8, 2,3,5-trimethyl-6-[(2-(((3R, 5aS, 6R, 9R, 12R, 12aR)-3,6,9-trimethylbicyclo [3.2.1]heptane-12H-3, 12-epoxide [1, 2]dioxacycloheptane [4,3-i]isochromene-10-yl)oxy)ethoxy)methyl] pyrazine]
